{"source": "patent US20240027450A1", "about": "“COMPOSITIONS AND METHODS FOR […]-COV-2 (COVID-19) AND FOR […]-COV-2-[…] IMM[…]” (QIAGEN SCIENCES LLC, priority 2020, published 2024)", "system": "T cells in whole blood samples", "experiment": "IFN-γ release (QuantiFERON SARS-CoV-2 tubes, ELISA) in whole blood of vaccinated donors, Example 2", "assay_type": "cell-based, human", "data": [{"substance": "phytohemagglutinin [Mit]", "values": [{"measurement": "IFN-γ, Nil-subtracted", "setting": "Donor 1, Day 4 after first dose of vaccine", "value": 7.19, "unit": "IU/mL"}, {"measurement": "IFN-γ, Nil-subtracted", "setting": "Donor 1, Day 11 after first dose of vaccine", "value": ">10", "unit": "IU/mL"}, {"measurement": "IFN-γ, Nil-subtracted", "setting": "Donor 2, Day 4 after first dose of vaccine", "value": 5.74, "unit": "IU/mL"}, {"measurement": "IFN-γ, Nil-subtracted", "setting": "Donor 2, Day 11 after first dose of vaccine", "value": ">10", "unit": "IU/mL"}, {"measurement": "IFN-γ, Nil-subtracted", "setting": "Donor 3, Day 4 after first dose of vaccine", "value": 7.07, "unit": "IU/mL"}, {"measurement": "IFN-γ, Nil-subtracted", "setting": "Donor 3, Day 11 after first dose of vaccine", "value": ">10", "unit": "IU/mL"}, {"measurement": "IFN-γ, Nil-subtracted", "setting": "Donor 4, Day 4 after first dose of vaccine", "value": 5.78, "unit": "IU/mL"}, {"measurement": "IFN-γ, Nil-subtracted", "setting": "Donor 4, Day 11 after first dose of vaccine", "value": ">10", "unit": "IU/mL"}, {"measurement": "IFN-γ, Nil-subtracted", "setting": "Donor 5, Day 4 after first dose of vaccine", "value": 7.13, "unit": "IU/mL"}, {"measurement": "IFN-γ, Nil-subtracted", "setting": "Donor 5, Day 11 after first dose of vaccine", "value": ">10", "unit": "IU/mL"}, {"measurement": "IFN-γ, Nil-subtracted", "setting": "Donor 6, Day 4 after first dose of vaccine", "value": 6.59, "unit": "IU/mL"}, {"measurement": "IFN-γ, Nil-subtracted", "setting": "Donor 6, Day 11 after first dose of vaccine", "value": ">10", "unit": "IU/mL"}, {"measurement": "IFN-γ, Nil-subtracted", "setting": "Donor 7, Day 4 after first dose of vaccine, […]", "value": 3.01, "unit": "IU/mL"}, {"measurement": "IFN-γ, Nil-subtracted", "setting": "Donor 7, Day 11 after first dose of vaccine", "value": ">10", "unit": "IU/mL"}, {"measurement": "IFN-γ, Nil-subtracted", "setting": "Donor 8, Day 7 after first dose of vaccine", "value": 7.13, "unit": "IU/mL"}, {"measurement": "IFN-γ, Nil-subtracted", "setting": "Donor 9, Day 0 after first dose of vaccine", "value": 6.19, "unit": "IU/mL"}, {"measurement": "IFN-γ, Nil-subtracted", "setting": "Donor 9, Day 7 after first dose of vaccine", "value": ">10", "unit": "IU/mL"}, {"measurement": "IFN-γ, Nil-subtracted", "setting": "Donor 10, Day 7 (Second Dose)", "value": ">10", "unit": "IU/mL"}, {"measurement": "IFN-γ, Nil-subtracted", "setting": "Donor 10, Day 22 (First-dose)", "value": ">10", "unit": "IU/mL"}]}]}
